# Test results published in patent publication US20250136931A1, “AN IMPROVED CELL CULTURE PROCESS FOR PRODUCTION OF PROTEIN” (KASHIV BIOSCIENCES, LLC, priority 2022, published 2025).
# What was measured:
# [1] = tested on: host cells producing antibody; assay: Fed-batch bioreactor (Ambr250) cell culture for antibody production, control process spiked with MitoTempo; assay type: cell-based; conditions: total 25 nM, 5 nM each on day 3, 5, 7, 9, 11
# Description: (§1) The cell bank vial is thawed in Shake flask 125 (SF125) into the seed media and cell counts are checked. The incubation is continued for 3-5 days during which cells reached the optimum cell density for subculture. The cells are subsequently expanded in Shake flask 500 (SF500) to generate sufficient inoculum for Ambr®250 bioreactors (250 mL).
# Production Fed batch bioreactor run is executed at Ambr®250 bioreactor using process parameters as mentioned below.
# The standard fed-batch culture process involved cell culturing for 12 days and it is harvested depending upon the culture cell viability.
# (§2) When the control process is spiked with antioxidant MitoTempo (total 25 nM added throughout the culturing period) 5 nM each on day 3, 5, 7, 9, 11. It is observed that the harvested protein titer is improved when analysed by Protein-A HPLC method. It is also observed that overall oxidation of the product is decreased when analysed by LC-MS method. The overall peak viable cell density of the culture is also found to have increased.
# [2] = tested on: host cells producing fusion protein (CTLA4Ig); assay: Fed-batch bioreactor (Ambr250) cell culture for fusion protein (CTLA4Ig) production, control process spiked with Mito-TEMPO; assay type: cell-based
# Description: as §1, with “was” for “is”, “were” for “are”
# Production Fed batch bioreactor run was executed at Ambr®250 bioreactor using process parameters as mentioned below.
# The standard fed-batch culture process involved cell culturing for 12 days and was harvested depending upon the culture cell viability.
# as §2, with “was” for “is”, “Mito Tempo” for “MitoTempo”, “improved by 28%” for “improved”, “decreased by 18%” for “decreased”, “increased by 11%.” for “increased.”
# [3] = CTLA4Ig culture, total 25 nM, 5 nM each on day 3, 5, 7, 9, 11
# [4] = CTLA4Ig fed-batch culture, 12 days, 5 nM each on Day 3, 5, 7, 9, 11 (total 25 nM)
compound,measurement,setting,value
"CC1(C)CC(NC(=O)C[P+](c2ccccc2)(c2ccccc2)c2ccccc2)CC(C)(C)N1[O] [MitoTempo, Mito-TEMPO]",harvested protein titer (Protein-A HPLC) versus control process,[1],improved
same,overall oxidation of the product (LC-MS) versus control process,[1],decreased
same,overall peak viable cell density of the culture versus control process,[1],increased
same,harvested protein titer improved (Protein-A HPLC) versus control process,[2]; [3],28%
same,overall oxidation of the product decreased (LC-MS) versus control process,[2]; [3],18%
same,overall peak viable cell density increased versus control process,[2]; [3],11%
same,Harvest Oxidation (%) by LC-MS,[2]; [4],12.2%
same,Harvest Titer by Protein-A HPLC,[2]; [4],2.7 g/L
same,Peak cell density by Automated cell counter,[2]; [4],18.8 ×10^6 cells/mL
